Test results as given in ChEMBL document CHEMBL1135872, “Oxyaniliniums as acetylcholinesterase inhibitors for the reversal of neuromuscular block” (Bioorg Med Chem Lett, 2002).

Key:
Acetylcholinesterase = Acetylcholinesterase (Homo sapiens, UniProt P22303); test: In vitro inhibitory activity against human recombinant AChE
Cavia porcellus = species: Cavia porcellus; test: In vitro potency in reversing vecuronium-induced block in guinea pig hemidiaphram; type: functional
Felis catus [1] = test: Tested for change in LV dp/dt at dose of 1.28 umol/kg in cat; type: functional
Felis catus [2] = test: Tested for change in arterial pressure at dose of 1.28 umol/kg in cat; type: functional, Artery
Felis catus [3] = test: Tested for effect on autonomic vagal membrane at dose of 1.28 umol/kg in cat; type: functional
Felis catus [4] = test: Tested for effect on nictitating membrane at dose of 1.28 umol/kg in cat; type: functional
Felis catus [5] = species: Felis catus; test: Effective dose required to reverse vecuronium-induced neuromuscular block in cat; type: functional
Felis catus [6] = test: Tested for change in LV pressure at dose of 1.28 umol/kg in cat; type: functional
Felis catus [7] = test: Tested for change in heart rate at dose of 1.28 umol/kg in cat; type: functional
Felis catus [8] = test: Tested for change in LV dp/dt at dose of 2.56 umol/kg in cat; type: functional
Felis catus [9] = test: Tested for change in arterial pressure at dose of 2.56 umol/kg in cat; type: functional, Artery
Felis catus [10] = test: Tested for change in heart rate at dose of 2.56 umol/kg in cat; type: functional
Felis catus [11] = test: Tested for effect on autonomic vagal membrane at dose of 2.56 umol/kg in cat; type: functional
Felis catus [12] = test: Tested for effect on nictitating membrane at dose of 2.56 umol/kg in cat; type: functional
Felis catus [13] = test: Tested for change in LV pressure at dose of 2.56 umol/kg in cat; type: functional
Felis catus [14] = test: Tested for change in LV dp/dt at dose of 2.1 umol/kg in cat; type: functional
Felis catus [15] = test: Tested for change in arterial pressure at dose of 2.1 umol/kg in cat; type: functional, Artery
Felis catus [16] = test: Tested for change in heart rate at dose of 2.1 umol/kg in cat; type: functional
Felis catus [17] = test: Tested for effect on autonomic vagal membrane at dose of 2.1 umol/kg in cat; type: functional
Felis catus [18] = test: Tested for effect on nictitating membrane at dose of 2.1 umol/kg in cat; type: functional
Felis catus [19] = test: Tested for change in LV pressure at dose of 2.1 umol/kg in cat; type: functional
Felis catus [20] = test: Tested for change in LV dp/dt at dose of 1.026 umol/kg in cat; type: functional
Felis catus [21] = test: Tested for change in LV pressure at dose of 1.026 umol/kg in cat; type: functional
Felis catus [22] = test: Tested for change in heart rate at dose of 1.026 umol/kg in cat; type: functional
Felis catus [23] = test: Tested for effect on autonomic vagal membrane at dose of 1.026 umol/kg in cat; type: functional
Felis catus [24] = test: Tested for effect on nictitating membrane at dose of 1.026 umol/kg in cat; type: functional
Felis catus [25] = test: Tested for change in arterial pressure at dose of 1.026 umol/kg in cat; type: functional, Artery
Felis catus [26] = test: Tested for change in LV dp/dt at dose of 0.076 umol/kg in cat; type: functional
Felis catus [27] = test: Tested for change in LV pressure at dose of 0.076 umol/kg in cat; type: functional
Felis catus [28] = test: Tested for change in heart rate at dose of 0.076 umol/kg in cat; type: functional
Felis catus [29] = test: Tested for effect on autonomic vagal membrane at dose of 0.076 umol/kg in cat; type: functional
Felis catus [30] = test: Tested for effect on nictitating membrane at dose of 0.076 umol/kg in cat; type: functional
Felis catus [31] = test: Tested for change in arterial pressure at dose of 0.076 umol/kg in cat; type: functional, Artery

Chain of Acetylcholinesterase (P22303 whole entry): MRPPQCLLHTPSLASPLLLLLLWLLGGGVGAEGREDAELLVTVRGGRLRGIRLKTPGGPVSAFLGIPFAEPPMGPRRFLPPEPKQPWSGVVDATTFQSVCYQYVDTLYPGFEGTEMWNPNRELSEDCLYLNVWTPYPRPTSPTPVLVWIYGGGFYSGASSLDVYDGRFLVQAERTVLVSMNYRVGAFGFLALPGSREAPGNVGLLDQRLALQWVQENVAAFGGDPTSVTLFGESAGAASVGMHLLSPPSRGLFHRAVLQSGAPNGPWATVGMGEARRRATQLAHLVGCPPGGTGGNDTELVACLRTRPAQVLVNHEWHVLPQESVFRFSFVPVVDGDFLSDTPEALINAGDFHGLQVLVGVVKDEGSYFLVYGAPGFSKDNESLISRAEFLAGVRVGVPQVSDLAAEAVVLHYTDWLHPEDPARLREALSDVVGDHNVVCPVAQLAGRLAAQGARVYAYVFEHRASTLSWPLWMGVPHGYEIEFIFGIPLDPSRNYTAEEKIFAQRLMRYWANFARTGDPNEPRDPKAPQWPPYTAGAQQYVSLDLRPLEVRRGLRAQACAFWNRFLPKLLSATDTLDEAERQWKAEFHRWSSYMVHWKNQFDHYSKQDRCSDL

| SMILES | IC50 (Acetylcholinesterase) [µM] | IC50 (Cavia porcellus) [µM] | other results |
| --- | --- | --- | --- |
| C[N+](C)(Cc1ccccc1)c1ccccc1O | > 10 | > 3 | – |
| COc1cccc(C[N+](C)(C)Cc2ccccc2)c1 | > 10 | – | – |
| C=CC[N+](C)(C)c1cccc(OC)c1 | > 10 | > 3 | – |
| COc1cccc([N+](C)(C)Cc2ccccc2)c1 | > 10 | > 3 | – |
| C=C(C)C[N+](C)(C)c1ccccc1OC | > 10 | > 3 | – |
| COc1ccc(C(=O)CCc2cccc([N+](C)(C)C)c2)cc1OC | > 10 | – | – |
| C=C(C)C[N+](C)(C)c1ccc(O)cc1 | > 10 | > 3 | – |
| C=CC[N+](C)(C)Cc1cccc(O)c1 | > 10 | > 3 | – |
| C=C(C)C[N+](C)(C)c1ccccc1O | > 10 | > 3 | – |
| C[N+](C)(Cc1ccccc1)c1ccc(O)cc1 | > 10 | > 3 | – |
| CC(=O)Oc1ccccc1[N+](C)(C)Cc1ccccc1 | > 10 | > 3 | – |
| COc1ccc(C(=O)CCc2ccc([N+](C)(C)Cc3ccccc3)cc2)cc1OC | 1.3 | 4.11 | – |
| COc1cccc(C[N+](C)(C)C)c1 | > 10 | – | – |
| C=C(C)C[N+](C)(C)c1cccc(OC)c1 | > 10 | > 3 | – |
| COc1ccc([N+](C)(C)Cc2ccccc2)cc1 | > 10 | > 3 | – |
| C=CC[N+](C)(C)c1ccc(OC(C)=O)cc1 | > 10 | > 3 | – |
| C=CC[N+](C)(C)c1ccc(OC)cc1 | > 10 | > 3 | – |
| C[N+](C)(C)Cc1cccc(O)c1 | > 10 | > 3 | – |
| CC(=O)Oc1cccc([N+](C)(C)Cc2ccccc2)c1 | > 10 | > 3 | – |
| C=CC[N+](C)(C)c1ccccc1OC.[Br-] | 1 | 2.89 | Change (Felis catus [1]): 9%; Change (Felis catus [2]): 24%; Change (Felis catus [3]): 41%; Change (Felis catus [4]): 2%; ED50 (Felis catus [5]): 0.22 µmol/kg; Change (Felis catus [6]): 9%; Change (Felis catus [7]): 2% |

| SMILES | IC50 (Acetylcholinesterase) [µM] | IC50 (Cavia porcellus) [µM] | other results |
| --- | --- | --- | --- |
| C=CC[N+](C)(C)c1ccc(O)cc1 | > 10 | > 3 | – |
| C=CC[N+](C)(C)c1ccc(OCC(=O)c2ccc(OC)c(OC)c2)cc1 | 10 | 0.5 | – |
| COc1ccc(C(=O)CCc2cccc([N+](C)(C)Cc3ccccc3)c2)cc1OC | 1.04 | > 3 | – |
| C=CC[N+](C)(C)c1cccc(OC(C)=O)c1 | 1 | 3.87 | – |
| C=CC[N+](C)(C)Cc1cccc(OC)c1 | > 10 | > 3 | – |
| COc1ccc(C(=O)CCc2ccc([N+](C)(C)C)cc2)cc1OC | 3 | 2 | – |
| COc1ccc(C(=O)COc2cccc([N+](C)(C)Cc3ccccc3)c2)cc1OC.[Br-] | 0.33 | 1.69 | Change (Felis catus [8]): 82%; Change (Felis catus [9]): 56%; Change (Felis catus [10]): 8%; Change (Felis catus [11]): 5%; Change (Felis catus [12]): 34%; Change (Felis catus [13]): 63% |
| COc1ccc(C(=O)COc2ccc([N+](C)(C)C)cc2)cc1OC | 10 | 9.8 | – |
| C=CC[N+](C)(C)c1ccccc1O.[Br-] | 1.85 | 74 | Change (Felis catus [14]): 8%; Change (Felis catus [15]): 2%; Change (Felis catus [16]): 1%; Change (Felis catus [17]): 5%; Change (Felis catus [18]): 5%; ED50 (Felis catus [5]): 0.5 µmol/kg; Change (Felis catus [19]): 12% |
| C[N+](C)(Cc1ccccc1)c1cccc(O)c1 | > 10 | > 3 | – |
| C=C(C)C[N+](C)(C)c1cccc(O)c1 | > 10 | > 3 | – |
| C[N+](C)(Cc1ccccc1)Cc1cccc(O)c1 | > 10 | – | – |
| C=CC[N+](C)(C)c1cccc(O)c1 | 3 | 13 | – |
| C=CCC[N+](C)(C)c1ccccc1O | 10 | > 10 | – |
| COc1ccccc1[N+](C)(C)Cc1ccccc1 | > 10 | > 3 | – |
| COc1ccc(C(=O)COc2ccc([N+](C)(C)Cc3ccccc3)cc2)cc1OC | 10 | 19.4 | – |
| COc1ccc(C(=O)COc2cccc([N+](C)(C)C)c2)cc1OC | 10 | 7.08 | – |
| CC(=O)Oc1ccc([N+](C)(C)Cc2ccccc2)cc1 | > 10 | > 3 | – |
| CC[N+](C)(C)c1cccc(O)c1.[Br-] [EDROPHONIUM BROMIDE] | – | 2.77 | Change (Felis catus [20]): 20%; Change (Felis catus [21]): 23%; Change (Felis catus [22]): 2%; Change (Felis catus [23]): -67%; Change (Felis catus [24]): 7%; Change (Felis catus [25]): 22% |
| CN(C)C(=O)Oc1cccc([N+](C)(C)C)c1.[Br-] [NEOSTIGMINE BROMIDE] | – | 0.028 | Change (Felis catus [26]): 12%; Change (Felis catus [27]): -14%; Change (Felis catus [28]): 4%; Change (Felis catus [29]): 62%; Change (Felis catus [30]): 6%; Change (Felis catus [31]): 22% |
